# Patent US11168364B2, “Method and system for sequencing nucleic acids” (priority 2016, dated 2021)
# Like-named read-outs stand apart in the source and are kept apart here.
# Experiments:
# [1] = biological target: Klenow (3′→5′ exo(−)) fragment of E. coli DNA polymerase (Escherichia coli, UniProt P00582, D355A/E357A)
# [2] = biological target: Klenow (Escherichia coli, UniProt P00582); assay: Label-free optical detection of Klenow binding with magnesium in the examination step (Example 1); details: Polymerase Buffer with 10 mM MgCl2; 150 nM Klenow; 100 μM dNTP; template base T
# Klenow, sequence (P00582 324-928): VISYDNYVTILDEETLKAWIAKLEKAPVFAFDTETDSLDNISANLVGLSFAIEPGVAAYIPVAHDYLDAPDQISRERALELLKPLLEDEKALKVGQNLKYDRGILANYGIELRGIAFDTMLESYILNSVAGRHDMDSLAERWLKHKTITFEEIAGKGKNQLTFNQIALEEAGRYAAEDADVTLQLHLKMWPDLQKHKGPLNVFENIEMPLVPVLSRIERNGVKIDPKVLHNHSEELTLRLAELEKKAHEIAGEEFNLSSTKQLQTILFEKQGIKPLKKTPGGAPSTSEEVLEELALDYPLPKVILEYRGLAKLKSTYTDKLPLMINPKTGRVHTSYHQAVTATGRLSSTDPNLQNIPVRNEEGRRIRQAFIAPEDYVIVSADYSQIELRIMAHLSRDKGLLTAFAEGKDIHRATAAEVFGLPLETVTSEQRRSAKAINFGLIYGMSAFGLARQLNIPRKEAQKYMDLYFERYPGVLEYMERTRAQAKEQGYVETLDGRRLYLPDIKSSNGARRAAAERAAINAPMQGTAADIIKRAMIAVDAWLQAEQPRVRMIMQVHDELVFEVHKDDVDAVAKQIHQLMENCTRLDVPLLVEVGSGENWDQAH
# [3] = biological target: T1, HIV reverse transcriptase (Human immunodeficiency virus type 1 group M subtype B, UniProt P03366); assay: Biolayer interferometry binding of HIV RT, dNTP and NNRTI to primer-template biosensor (Example 8); parameters: species or system HIV-1; details: 100 μM dNTP, 100 nM HIV RT, association phase
# T1 construct: Recombinant purified HIV reverse transcriptase (HIV RT) was from Worthington Biochemical Corp; purchased Worthington Biochemical Corp (Lakewood, N.J.)
# Protocol: Uncompetitive NNRTI compounds (Pitta et al., J. Enzyme Inhib. Med. Chem. 28(10): 113-22 (2013)), which is incorporated by reference herein in its entirety), were from Epigen Biosciences, Inc. (San Diego, Calif.). NNRTI compounds 7 (3-4-chloro-benzo[d]thiazol-2-yl)-2-(2-chloro-6-fluorophenyl)thiazolidin-4-one) and 18 (3-(6-ethoxy-benzo[d]thiazol-2-yl)-2-(2-chloro-6-fluorophenyl)thiazolidin-4-one) were dissolved in dimethylsulfoxide (DMSO) to concentrations of 25.0 mM and 15.0 mM, respectively. Recombinant purified HIV reverse transcriptase (HIV RT) was from Worthington Biochemical Corp (Lakewood, N.J.). Ultra-pure bovine serum albumin (BSA) was from Ambion (Foster City, Calif.). […] Primer-template duplex was diluted (100 μM) into Annealing Buffer. Immediately before use, HIV Reverse Transcriptase was pre-diluted into Enzyme Diluent (50 mM Tris buffer (pH 8.0), 8 mM MgCl2). […] NNRTI compounds were pre-diluted with DMSO immediately before being spiked into Binding Buffer. Reaction Buffer was Binding Buffer without NNRTI, dNTP or HIV RT enzyme. […] Biosensors were transferred to Binding Buffer containing HIV RT and dCTP+NNRTI (association phase) followed by Reaction Buffer (dCTP incorporation and dissociation phase). […] Cycles of binding and incorporation were repeated multiple times. […]
# [4] = system: Nucleic Acid:Polymerase Complex; assay: Stabilization of nucleic acid:polymerase complex in wash buffer (Example 6); format: binding; details: 3.5 mM Sr2+ in wash buffer (LS buffer)
# Protocol: To minimize the possibility of multiple incorporations in a homopolymer region, a wash step can be performed before incorporation. Metal cations such as calcium and strontium can stabilize the polymerase complex (like magnesium), but cannot support catalysis of the phosphodiester bond which results in incorporation of the nucleotide. In this experiment, varying concentrations of SrCl2 (0 mM-14 mM) were added to the wash buffer (LS buffer).
# [5] = divalent cation 2.0 mM (CoCl2 1.0 mM) in Binding Buffer, 100 μM dCTP
# [6] = divalent cation 2.0 mM (CoCl2 1.0 mM), 100 μM dCTP
# Klenow (3′→5′ exo(−)) fragment of E. coli DNA polymerase, sequence (P00582 324-928 D355A/E357A limits assumed): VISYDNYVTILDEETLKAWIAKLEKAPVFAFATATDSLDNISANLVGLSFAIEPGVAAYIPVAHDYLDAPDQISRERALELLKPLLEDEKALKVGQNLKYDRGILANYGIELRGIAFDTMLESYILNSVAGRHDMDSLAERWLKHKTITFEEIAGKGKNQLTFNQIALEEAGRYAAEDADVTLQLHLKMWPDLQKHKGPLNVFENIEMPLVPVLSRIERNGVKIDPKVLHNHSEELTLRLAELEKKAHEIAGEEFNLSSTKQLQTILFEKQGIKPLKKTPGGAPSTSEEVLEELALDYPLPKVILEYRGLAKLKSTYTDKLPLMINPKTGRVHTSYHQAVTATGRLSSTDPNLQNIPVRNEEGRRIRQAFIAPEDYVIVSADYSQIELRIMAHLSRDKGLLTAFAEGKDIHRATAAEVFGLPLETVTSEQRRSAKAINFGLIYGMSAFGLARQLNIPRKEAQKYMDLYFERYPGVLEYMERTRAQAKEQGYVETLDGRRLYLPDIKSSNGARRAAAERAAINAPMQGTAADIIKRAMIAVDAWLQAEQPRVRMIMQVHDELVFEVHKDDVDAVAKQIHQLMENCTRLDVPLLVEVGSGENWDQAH
compound,measurement,setting,value
"[Cl][Co][Cl] [Co2+, cobalt chloride]",binding of Klenow exo(−) and dCTP to biosensor coated with ssDNA primer-template,[1]; [5],transient peak
same,nucleotide incorporation by Klenow exo(−) in the absence of Mg2+,[1]; [6],complete nucleotide incorporation
"Nc1ccn([C@H]2C[C@H](O)[C@@H](COP(=O)(O)OP(=O)(O)OP(=O)(O)O)O2)c(=O)n1 [dCTP, 2′-deoxycytidine-5′-triphosphate]",pre-steady state rate constant,[2],0.0084
manganese chloride [Mn2+],binding of Klenow exo(−) and dCTP to biosensor coated with ssDNA primer-template,[1]; [5],flat peak
same,nucleotide incorporation by Klenow exo(−) in the absence of Mg2+,[1]; [6],complete nucleotide incorporation
"Nc1ncnc2c1ncn2[C@H]1C[C@H](O)[C@@H](COP(=O)(O)OP(=O)(O)OP(=O)(O)O)O1 [dATP, 2′-deoxyadenosine-5′-triphosphate]",pre-steady state rate constant,[2],0.0106
N.N.O=S(=O)(O)O [ammonium sulfate],binding of Klenow exo(−) and dCTP to biosensor coated with ssDNA primer-template,[1]; [5],bound strongly
"[Cl-].[Cl-].[Zn+2] [Zn2+, zinc chloride]",binding of Klenow exo(−) and dCTP to biosensor coated with ssDNA primer-template,[1]; [5],transient peak
same,nucleotide incorporation by Klenow exo(−) in the absence of Mg2+,[1]; [6],complete nucleotide incorporation
"[Ca+2].[Cl-].[Cl-] [Ca2+, calcium chloride]",binding of Klenow exo(−) and dCTP to biosensor coated with ssDNA primer-template,[1],transient peak
same,nucleotide incorporation by Klenow exo(−) in the absence of Mg2+,[1],complete nucleotide incorporation
"CCOc1ccc2nc(N3C(=O)CSC3c3c(F)cccc3Cl)sc2c1 (centres unmarked) [NNRTI compound 18, 3-(6-ethoxy-benzo[d]thiazol-2-yl)-2-(2-chloro-6-fluorophenyl)thiazolidin-4-one]",binding of HIV reverse transcriptase and correct dNTP to biosensor coated with primer-template,[3]; NNRTI 80 μM,distinct peaks for binding
O=C1CSC(c2c(F)cccc2Cl)N1c1nc2c(Cl)cccc2s1 (centres unmarked) [NNRTI compound 7],binding of HIV reverse transcriptase and correct dNTP to biosensor coated with primer-template,[3]; NNRTI 40 μM,distinct peaks for binding
"[Cl][Cu][Cl] [Cu2+, copper(II) chloride]",binding of Klenow exo(−) and dCTP to biosensor coated with ssDNA primer-template,[1],transient peak
"[Ba+2].[Cl-].[Cl-] [BaCl2, barium chloride]",binding of Klenow exo(−) and dCTP to biosensor coated with ssDNA primer-template,[1]; [5],bound strongly
"[Cl-].[Cl-].[Sr+2] [SrCl2, Strontium chloride]",stability of polymerase complex in wash buffer,[4],much more stable
same,binding of Klenow exo(−) and dCTP to biosensor coated with ssDNA primer-template,[1]; [5],bound strongly
